# In publication PMC10408569, “Recruitment of hexahydroquinoline as anticancer scaffold targeting inhibition of wild and mutants EGFR (EGFR^WT, EGFR^T790M, and EGFR^L858R)” (Journal of Enzyme Inhibition and Medicinal Chemistry, 2023):
# Columns and labels:
# Experiment in all cases: NCI-60 anticancer screening (SRB)
# Format in all cases: cell-based
# SK-OV-3 = details: Homo sapiens; SK-OV-3, ovarian cancer; one dose 10 μM; read-out: Growth Inhibition Percentage (GI %)
# OVCAR-4 = details: Homo sapiens; OVCAR-4, ovarian cancer; one dose 10 μM; read-out: Growth Inhibition Percentage (GI %)
# MCF7 = details: Homo sapiens; MCF7, breast cancer; one dose 10 μM; read-out: Growth Inhibition Percentage (GI %)
# SK-MEL-28 = details: Homo sapiens; SK-MEL-28, melanoma; one dose 10 μM; read-out: Growth Inhibition Percentage (GI %)
# RPMI-8226 = details: Homo sapiens; RPMI-8226, leukemia; one dose 10 μM; read-out: Growth Inhibition Percentage (GI %)
# HCT-116 = details: Homo sapiens; HCT-116, colon cancer; one dose 10 μM; read-out: Growth Inhibition Percentage (GI %)
# RXF 393 = details: Homo sapiens; RXF 393, renal cancer; one dose 10 μM; read-out: Growth Inhibition Percentage (GI %)
# T-47D = details: Homo sapiens, T47D, breast cancer, one dose 10 μM, read-out: Growth Inhibition Percentage (GI %)
# SF-295 = details: Homo sapiens; SF-295, CNS cancer; one dose 10 μM; read-out: Growth Inhibition Percentage (GI %)
# PC-3 = details: Homo sapiens; PC-3, prostate cancer; one dose 10 μM; read-out: Growth Inhibition Percentage (GI %)
# M14 = details: Homo sapiens; M14, melanoma; one dose 10 μM; read-out: Growth Inhibition Percentage (GI %)
# CCRF-CEM = details: Homo sapiens, leukemia, one dose 10 μM, read-out: Growth Inhibition Percentage (GI %)
# NCI-H460 = details: Homo sapiens; NCI-H460, NSC lung cancer; one dose 10 μM; read-out: Growth Inhibition Percentage (GI %)
# SN 12C = details: Homo sapiens, SN12C; SN 12C, renal cancer; one dose 10 μM; read-out: Growth Inhibition Percentage (GI %)
# HOP-92 = details: Homo sapiens; HOP-92, NSC lung cancer; one dose 10 μM; read-out: Growth Inhibition Percentage (GI %)
# HS 578T = details: Homo sapiens; HS 578T, breast cancer; one dose 10 μM; read-out: Growth Inhibition Percentage (GI %)
# TK-10 = details: Homo sapiens; TK-10, renal cancer; one dose 10 μM; read-out: Growth Inhibition Percentage (GI %)
# LOX IMVI = details: Homo sapiens, melanoma, one dose 10 μM, read-out: Growth Inhibition Percentage (GI %)
# ACHN = details: Homo sapiens, renal cancer, one dose 10 μM, read-out: Growth Inhibition Percentage (GI %)
# SK-MEL-5 = details: Homo sapiens; SK-MEL-5, melanoma; one dose 10 μM; read-out: Growth Inhibition Percentage (GI %)
# A498 = details: Homo sapiens; A498, renal cancer; one dose 10 μM; read-out: Growth Inhibition Percentage (GI %)
# SW-620 = details: Homo sapiens; SW-620, colon cancer; one dose 10 μM; read-out: Growth Inhibition Percentage (GI %)
# SF-268 = details: Homo sapiens; SF-268, CNS cancer; one dose 10 μM; read-out: Growth Inhibition Percentage (GI %)
# HT29 = details: Homo sapiens, HT-29; HT29, colon cancer; one dose 10 μM; read-out: Growth Inhibition Percentage (GI %)
# K-562 = details: Homo sapiens, K562; K-562, leukemia; one dose 10 μM; read-out: Growth Inhibition Percentage (GI %)
# UACC-62 = details: Homo sapiens; UACC-62, melanoma; one dose 10 μM; read-out: Growth Inhibition Percentage (GI %)
# SF-539 = details: Homo sapiens; SF-539, CNS cancer; one dose 10 μM; read-out: Growth Inhibition Percentage (GI %)
# SR = details: Homo sapiens, leukemia, one dose 10 μM, read-out: Growth Inhibition Percentage (GI %)
smiles,measurement,setting,value
"CCOC(=O)C1=C(N)N(c2ccc(C)cc2)C2=C(C(=O)CC(C)(C)C2)C1c1ccccc1Cl (racemic) [6b, (±)-Ethyl 2-amino-4–(2-chlorophenyl)-7,7-dimethyl-1–(4-methylphenyl)-5-oxo-1,4,5,6,7,8-hexahydroquinoline-3-carboxylate]",inhibition at 10 µM,SK-OV-3,< 10%
same,inhibition at 10 µM,OVCAR-4,< 10%
same,inhibition at 10 µM,MCF7,32%
same,inhibition at 10 µM,SK-MEL-28,< 10%
same,inhibition at 10 µM,RPMI-8226,22%
same,inhibition at 10 µM,HCT-116,17%
same,inhibition at 10 µM,RXF 393,< 10%
same,inhibition at 10 µM,T-47D,21%
same,inhibition at 10 µM,SF-295,< 10%
same,inhibition at 10 µM,PC-3,43%
same,inhibition at 10 µM,M14,< 10%
same,inhibition at 10 µM,CCRF-CEM,< 10%
same,inhibition at 10 µM,NCI-H460,20%
same,inhibition at 10 µM,SN 12C,< 10%
same,inhibition at 10 µM,HOP-92,< 10%
same,inhibition at 10 µM,HS 578T,< 10%
same,inhibition at 10 µM,TK-10,< 10%
same,inhibition at 10 µM,LOX IMVI,< 10%
same,inhibition at 10 µM,ACHN,< 10%
same,inhibition at 10 µM,SK-MEL-5,17%
same,inhibition at 10 µM,A498,< 10%
same,inhibition at 10 µM,SW-620,19%
same,inhibition at 10 µM,SF-268,< 10%
same,inhibition at 10 µM,HT29,30%
same,inhibition at 10 µM,K-562,< 10%
same,inhibition at 10 µM,UACC-62,23%
same,inhibition at 10 µM,SF-539,< 10%
same,inhibition at 10 µM,SR,< 10%
"CCOC(=O)C1=C(N)N(c2ccccc2)C2=C(C(=O)CC(C)(C)C2)C1c1ccc([N+](=O)[O-])cc1 (racemic) [8i, (±)-Ethyl 2-amino-4–(4-nitrophenyl)-7,7-dimethyl-5-oxo-1-phenyl-1,4,5,6,7,8-hexahydroquinoline-3-carboxylate]",inhibition at 10 µM,OVCAR-4,< 10%
same,inhibition at 10 µM,MCF7,16%
same,inhibition at 10 µM,SK-MEL-28,< 10%
same,inhibition at 10 µM,RPMI-8226,17%
same,inhibition at 10 µM,HCT-116,16%
same,inhibition at 10 µM,RXF 393,< 10%
same,inhibition at 10 µM,T-47D,< 10%
same,inhibition at 10 µM,SF-295,< 10%
same,inhibition at 10 µM,PC-3,32%
same,inhibition at 10 µM,M14,< 10%
same,inhibition at 10 µM,CCRF-CEM,11%
same,inhibition at 10 µM,NCI-H460,< 10%
same,inhibition at 10 µM,SN 12C,< 10%
same,inhibition at 10 µM,HOP-92,< 10%
same,inhibition at 10 µM,HS 578T,< 10%
same,inhibition at 10 µM,TK-10,< 10%
same,inhibition at 10 µM,LOX IMVI,11%
same,inhibition at 10 µM,ACHN,12%
same,inhibition at 10 µM,SK-MEL-5,< 10%
same,inhibition at 10 µM,A498,< 10%
same,inhibition at 10 µM,SW-620,< 10%
same,inhibition at 10 µM,SF-268,< 10%
same,inhibition at 10 µM,HT29,< 10%
same,inhibition at 10 µM,K-562,16%
same,inhibition at 10 µM,UACC-62,33%
same,inhibition at 10 µM,SF-539,< 10%
same,inhibition at 10 µM,SR,34%
"CCOC(=O)C1=C(N)N(c2ccc(C)cc2)C2=C(C(=O)CC(C)(C)C2)C1c1ccc([N+](=O)[O-])cc1 (racemic) [8j, (±)-Ethyl 2-amino-7,7-dimethyl-1–(4-methylphenyl)-4–(4-nitrophenyl)-5-oxo-1,4,5,6,7,8-hexahydroquinoline-3-carboxylate]",inhibition at 10 µM,SK-OV-3,< 10%
same,inhibition at 10 µM,OVCAR-4,< 10%
same,inhibition at 10 µM,MCF7,< 10%
same,inhibition at 10 µM,SK-MEL-28,< 10%
same,inhibition at 10 µM,RPMI-8226,< 10%
same,inhibition at 10 µM,HCT-116,< 10%
same,inhibition at 10 µM,RXF 393,< 10%
same,inhibition at 10 µM,T-47D,< 10%
same,inhibition at 10 µM,SF-295,< 10%
same,inhibition at 10 µM,PC-3,< 10%
same,inhibition at 10 µM,M14,< 10%
same,inhibition at 10 µM,CCRF-CEM,< 10%
same,inhibition at 10 µM,NCI-H460,< 10%
same,inhibition at 10 µM,SN 12C,< 10%
same,inhibition at 10 µM,HOP-92,< 10%
same,inhibition at 10 µM,HS 578T,< 10%
same,inhibition at 10 µM,TK-10,< 10%
same,inhibition at 10 µM,LOX IMVI,< 10%
same,inhibition at 10 µM,ACHN,< 10%
same,inhibition at 10 µM,SK-MEL-5,< 10%
same,inhibition at 10 µM,A498,< 10%
same,inhibition at 10 µM,SW-620,< 10%
same,inhibition at 10 µM,SF-268,< 10%
same,inhibition at 10 µM,HT29,< 10%
same,inhibition at 10 µM,K-562,< 10%
same,inhibition at 10 µM,UACC-62,13%
same,inhibition at 10 µM,SR,< 10%
